Experimental data: patent publication US20130072519A1, “2-PHENYL BENZOYLAMIDES” (priority 2010, published 2013)

system: Apolipoprotein B Secretion from HepG2 Cells; assay: Inhibition of Apolipoprotein B secretion from HepG2 cells (ELISA); type: cell-based, human; conditions: HepG2 cells, 22-24 hours incubation, ApoB ELISA; Low/High IC50 columns give the 95% confidence interval
Description: Inhibition of Apolipoprotein B Secretion from HepG2 Cells
To assess the inhibitory effect of the compounds of the invention on ApoB production, an endogenously ApoB producing cell line, HEPG2, was implemented in an in vitro ELISA assay. HEPG2 cells are plated at 25,000 per well (96-well plates) in media consisting of DMEM Low Glucose, 1% NEAA (non-essential amino acids), 10% FBS (heat inactivated), 1% L-Glutamine, and 1% Antimycotic-Antibiotic and incubated for 16-18 hours at 37° C. and 5% CO2. After the 16-18 hour incubation, a 12 point half-log serial of the inhibitor (1000 nM-0.003 nM) is prepared, and 1.5 ul of the serial dilution is added to HEPG2 cells, which have had their media decanted and replaced with 148 ul of fresh media, and the cells are incubated for 22-24 hours at 37° C. and 5% CO2. Two and a half hours before the 22-24 hour incubation period is completed, Nunc Maxisorp plates are coated with 100 ul of primary (coating) antibody (goat anti-apoB), diluting to a ratio of 1:1000 in 1% Carbonate-Bicarbonate Coating Buffer and incubated for at least 2 hours at room temperature before the primary antibody is decanted and the wells of the microplate are washed with 200 ul of washing buffer (1% PBS, 0.05% Tween20). Next, 200 ul of blocking buffer (1% PBS, 1:500 Western Block, 5 mg/ml BSA) is added to the wells of the microplate, and incubated for at least 30 mins. Following the 22-24 hours incubation period, cell plates are removed from the incubator, 20 ul of supernatant from each well is aspirated, added to a corresponding well in 96 well plate containing 140 ul of diluent (1:2-Blocking Buffer: Washing Buffer), and mixed. Then, 120 ul is aspirated from the dilutent-supernatant plate, added to the blocked Nunc Maxisorp 96 well plate, and placed at room temperature on a shaker to mix for at least 2 hours. The secondary (capture) antibody (mouse anti-human apoB) is prepared at a ratio of 1:4000, and the detection antibody (goat anti-mouse HRP conjugated antibody) at a ratio of 1:10,000. For each antibody, 100 ul is added to each well of the microplate and the microplate is incubated at room temperature for 2 hours, washing the microplates between each antibody addition. Colorimetric development is achieved by adding 50 ul of TMB reagent to each well, incubating for 5 mins at room temperature, then adding 50 ul of 2M Sulfuric Acid to each well. Absorbance at 450 nm is monitored in an Envision plate reader to measure the amount of ApoB formed.
Results reported as average IC50, low and high IC50 range (95% confidence interval).

Compound | IC50 [nM]
Cc1cccc(C(=O)Nc2ccc(CC(=O)OCC3(C(=O)OCc4ccccc4)c4ccccc4C(=O)N3C)cc2C(=O)N(C)C)c1-c1ccc(C(F)(F)F)cc1 (single isomer, unassigned; (+)) [Example 10, (+)-Benzyl 1-({2-[3-(Dimethylcarbamoyl)-4-({[6-methyl-4′-(trifluoromethyl)biphenyl-2-yl]carbonyl}amino)phenyl]acetoxy}methyl)-2-methyl-3-oxoisoindoline-1-carboxylate] | 14.1
CCOC(=O)C1(COC(=O)Cc2ccc(NC(=O)c3ccccc3-c3ccc(C(F)(F)F)cc3)c(C(=O)N(C)C)c2)CCCc2ccccc21 (single isomer, unassigned; (+)) [Example 46, (+)-Ethyl 1-({2-[3-(Dimethylcarbamoyl)-4-({[4′-(trifluoromethyl)biphenyl-2-yl]carbonyl}amino)phenyl]acetoxy}methyl)-1,2,3,4-tetrahydronaphthalene-1-carboxylate] | 1.66
Cc1cccc(C(=O)Nc2ccc(CC(=O)OCC3(C(=O)OCc4ccccc4)c4ccccc4C(=O)N3C)cc2C(=O)N(C)C)c1-c1ccc(C(F)(F)F)cc1 (single isomer, unassigned; (-)) [Example 9, (−)-Benzyl 1-({2-[3-(Dimethylcarbamoyl)-4-({[6-methyl-4′-(trifluoromethyl)biphenyl-2-yl]carbonyl}amino)phenyl]acetoxy}methyl)-2-methyl-3-oxoisoindoline-1-carboxylate] | 0.2
CCOC(=O)C1(COC(=O)Cc2ccc(NC(=O)c3cccc(C)c3-c3ccc(C(F)(F)F)cc3)c(C(=O)N(C)C)c2)NC(=O)c2ccccc21 (centres unmarked) [Example 11] | 29.4
CCOC(=O)C1(COC(=O)Cc2ccc(NC(=O)c3cccc(C)c3-c3ccc(C(F)(F)F)cc3)c(C(=O)N(C)C)c2)NC(=O)c2ccccc21 (centres unmarked) [Example 12] | 156
CCOC(=O)C1(COC(=O)Cc2ccc(NC(=O)c3ccccc3-c3ccc(C(F)(F)F)cc3)c(C(=O)N(C)C)c2)c2ccccc2C(=O)N1CC (centres unmarked) [Example 19] | 0.107
CCOC(=O)C1(COC(=O)Cc2ccc(NC(=O)c3ccccc3-c3ccc(C(F)(F)F)cc3)c(C(=O)N(C)C)c2)c2ccccc2C(=O)N1CC (centres unmarked) [Example 20] | 1.76
CN(C)C(=O)c1cc(CC(=O)OCC2(C(=O)OCc3ccccc3)c3ccccc3C(=O)N2C)ccc1NC(=O)c1ccccc1-c1ccc(C(F)(F)F)cc1 (centres unmarked) [Example 22] | 83.5
CN(C)C(=O)c1cc(CC(=O)OCC2(C(=O)OCc3ccccc3)c3ccccc3C(=O)N2C)ccc1NC(=O)c1ccccc1-c1ccc(C(F)(F)F)cc1 (centres unmarked) [Example 23] | 0.333
CCOC(=O)C1(COC(=O)Cc2ccc(NC(=O)c3ccccc3-c3ccc(C(F)(F)F)cc3)c(C(=O)N(C)C)c2)NC(=O)c2ccccc21 (centres unmarked) [Example 24] | 28
CCOC(=O)C1(COC(=O)Cc2ccc(NC(=O)c3ccccc3-c3ccc(C(F)(F)F)cc3)c(C(=O)N(C)C)c2)NC(=O)c2ccccc21 (centres unmarked) [Example 25] | 297

same assay, conditions: Homo sapiens, HepG2, HepG2 cells, 22-24 hours incubation, ApoB ELISA; Low/High IC50 columns give the 95% confidence interval

Compound | IC50 [nM]
CCOC(=O)C1(COC(=O)Cc2ccc(NC(=O)c3ccccc3-c3ccc(C(F)(F)F)cc3)c(C(=O)N(C)C)c2)c2ccccc2C(=O)N1C (racemic) [Example 4] | 0.846
Cc1cccc(C(=O)Nc2ccc(CC(=O)OCC3(C(=O)OCc4ccccc4)c4ccccc4C(=O)N3C)cc2C(=O)N(C)C)c1-c1ccc(C(F)(F)F)cc1 (racemic) [Example 8] | 0.436
CCOC(=O)C1(COC(=O)Cc2ccc(NC(=O)c3ccccc3-c3ccc(C(F)(F)F)cc3)c(C(=O)N(C)C)c2)c2ccccc2C(=O)N1C(C)C (racemic) [Example 14] | 2.16
CCOC(=O)C1(COC(=O)Cc2ccc(NC(=O)c3ccccc3-c3ccc(C(F)(F)F)cc3)c(C(=O)N(C)C)c2)c2ccccc2C(=O)N1CC (racemic) [Example 15] | 1.45
CCOC(=O)C1(COC(=O)Cc2ccc(NC(=O)c3ccccc3-c3ccc(C(F)(F)F)cc3)c(C(=O)N(C)C)c2)c2ccccc2C(=O)N1CC(F)(F)F (racemic) [Example 16] | 2.73
CCOC(=O)C1(COC(=O)Cc2ccc(NC(=O)c3ccccc3-c3ccc(C(F)(F)F)cc3)c(C(=O)N(C)C)c2)NC(=O)c2ccccc21 (racemic) [Example 21] | 16.5
CCOC(=O)C1(COC(=O)Cc2ccc(NC(=O)c3ccccc3-c3ccc(C(F)(F)F)cc3)c(C(=O)N(C)C)c2)c2ccccc2C(=O)N1Cc1ccc(OC)cc1OC (racemic) [Example 27] | 30.8
COC(=O)C1(COC(=O)Cc2ccc(NC(=O)c3ccccc3-c3ccc(C(F)(F)F)cc3)c(C(=O)N(C)C)c2)CCc2ccccc21 (racemic) [Example 28] | 3.17
CCOC(=O)C1(COC(=O)Cc2ccc(NC(=O)c3ccccc3-c3ccc(C(F)(F)F)cc3)c(C(=O)N(C)C)c2)CCc2ccccc21 (racemic) [Example 29] | 2.04
CCOC(=O)C1(COC(=O)Cc2ccc(NC(=O)c3ccccc3-c3ccc(C(F)(F)F)cc3)c(C(=O)N(C)C)c2)OC(=O)c2ccccc21 (racemic) [Example 30] | 6.5
CCOC(=O)C1(COC(=O)Cc2ccc(NC(=O)c3ccccc3-c3ccc(C(F)(F)F)cc3)c(C(=O)N(C)C)c2)CCc2cccnc21 (racemic) [Example 37] | 8.47
CCOC(=O)C1(COC(=O)Cc2ccc(NC(=O)c3ccccc3-c3ccc(C(F)(F)F)cc3)c(C(=O)N(C)C)c2)CCCc2ccccc21 (racemic) [Example 41] | 0.701
CCOC(=O)C1(COC(=O)Cc2ccc(NC(=O)c3ccccc3-c3ccc(C(F)(F)F)cc3)c(C(=O)N(C)C)c2)CCCc2cccnc21 (racemic) [Example 42] | 0.529
CCOC(=O)C1(COC(=O)Cc2ccc(NC(=O)c3cccc(C)c3-c3ccc(C(F)(F)F)cc3)c(C(=O)N(C)C)c2)c2ncccc2C(=O)N1CC (racemic) [Example 44] | 0.328
CCN1C(=O)c2ccccc2C1(COC(=O)Cc1ccc(NC(=O)c2cccc(C)c2-c2ccc(C(F)(F)F)cc2)c(C(=O)N(C)C)c1)C(=O)OC (racemic) [Example 65, methyl 1-({2-[3-(dimethylcarbamoyl)-4-({[6-methyl-4′-(trifluoromethyl)biphenyl-2-yl]carbonyl}amino)phenyl]acetoxy}methyl)-2-ethyl-3-oxoisoindoline-1-carboxylate] | 0.38
CCOC(=O)C1(COC(=O)Cc2ccc(NC(=O)c3ccccc3-c3ccc(C(F)(F)F)cc3)c(C(=O)N(C)C)c2)CCCc2ccccc21 (single isomer, unassigned; (-)) [Example 45, (−)-Ethyl 1-({2-[3-(Dimethylcarbamoyl)-4-({[4′-(trifluoromethyl)biphenyl-2-yl]carbonyl}amino)phenyl]acetoxy}methyl)-1,2,3,4-tetrahydronaphthalene-1-carboxylate] | 1.63
CCOC(=O)[C@]1(COC(=O)Cc2ccc(NC(=O)c3ccccc3-c3ccc(C(F)(F)F)cc3)c(C(=O)N(C)C)c2)c2ccccc2C(=O)N1C [Example 1, Ethyl 1R-({2-[3-(dimethylcarbamoyl)-4-({[4′-(trifluoromethyl)biphenyl-2-yl]carbonyl}amino)phenyl]acetoxy}methyl)-2-methyl-3-oxoisoindoline-1-carboxylate] | 0.495
CCOC(=O)C1(COC(=O)Cc2ccc(NC(=O)c3cccc(C)c3-c3ccc(C(C)(C)C)cc3)c(C(=O)N(C)C)c2)OC(=O)c2ccccc21 (centres unmarked) [Example 2] | 519
CCOC(=O)C1(COC(=O)Cc2ccc(NC(=O)c3ccc(C(F)(F)F)cc3-c3ccc(C(F)(F)F)cc3)c(C(=O)N(C)C)c2)OC(=O)c2ccccc21 (centres unmarked) [Example 3] | 15.7
CCOC(=O)C1(COC(=O)Cc2ccc(NC(=O)c3ccccc3-c3ccc(C(F)(F)F)cc3)c(Cl)c2)c2ccccc2C(=O)N1C (centres unmarked) [Example 6] | 4.77
CCOC(=O)C1(COC(=O)Cc2ccc(NC(=O)c3cccc(C)c3-c3ccc(C(F)(F)F)cc3)c(C(=O)N(C)C)c2)c2ccccc2C(=O)N1C (centres unmarked) [Example 7] | 15.6
CCOC(=O)C1(COC(=O)Cc2ccc(NC(=O)c3ccccc3-c3ccc(C(F)(F)F)cc3)c(C(=O)N(C)C)c2)c2ccccc2C(=O)N1C (centres unmarked) [Example 13] | 7.18
CCOC(=O)C1(COC(=O)Cc2ccc(NC(=O)c3ccccc3-c3ccc(C(F)(F)F)cc3)c(C)c2)c2ccccc2C(=O)N1C (centres unmarked) [Example 17] | 3.07
CCOC(=O)C1(COC(=O)Cc2ccc(NC(=O)c3ccccc3-c3ccc(C(F)(F)F)cc3)cc2)c2ccccc2C(=O)N1C (centres unmarked) [Example 18] | 23.9
